In patent US11161850B2, “Fused pyrazine derivatives as A2A / A2B inhibitors” (Incyte Corporation, priority 2018, dated 2021) one finds EC50 and Ki data, which are given here for 19 compounds.

Bounds are passed on as bounds.

The target in assay [1] is human adenosine A2B receptor (Homo sapiens (Human), UniProt P29275). The assay is described as follows: Adenosine A2B Receptor Cyclic AMP GS Assay. It is filed as cell-based. To be noted: A2B_cAMP_EC50 (nM), HEK-293 cells expressing human A2B, agonist NECA 12 nM. In outline: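 Stably transfected HEK-293 cells were preincubated with compound for 30 min at room temperature, then stimulated with 12 nM NECA for 60 min. cAMP accumulation was read by FRET (665/620 ratio), and EC50 was fitted from percent of control versus log compound concentration.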

In assay [2] the target is Adenosine A2A (Homo sapiens (Human), UniProt P29274). As to the kind of experiment: A2A Tag-Lite HTRF assay. It is filed as binding. The conditions noted are these: Tag-Lite Adenosine A2A labeled cells, fluorescent ligand 12.5 nM; read-out: A2A_Ki. The text has this:
Example C. A2A Tag-Lite® HTRF Assay
A general note: Time-resolved FRET reads energy transfer from a long-lived donor to a nearby acceptor.

Sequence of Adenosine A2A (P29274 whole entry): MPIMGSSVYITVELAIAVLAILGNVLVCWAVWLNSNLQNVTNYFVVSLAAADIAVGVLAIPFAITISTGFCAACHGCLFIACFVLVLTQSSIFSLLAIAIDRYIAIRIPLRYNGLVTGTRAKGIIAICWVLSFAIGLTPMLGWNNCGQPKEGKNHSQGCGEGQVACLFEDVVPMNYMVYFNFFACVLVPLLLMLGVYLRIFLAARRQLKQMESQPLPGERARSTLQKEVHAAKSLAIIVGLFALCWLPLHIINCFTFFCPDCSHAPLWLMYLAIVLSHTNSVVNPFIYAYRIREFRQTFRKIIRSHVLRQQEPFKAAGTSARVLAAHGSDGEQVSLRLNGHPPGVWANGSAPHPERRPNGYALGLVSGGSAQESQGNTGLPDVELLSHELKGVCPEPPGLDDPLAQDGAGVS
Sequence of human adenosine A2B receptor (P29275 whole entry): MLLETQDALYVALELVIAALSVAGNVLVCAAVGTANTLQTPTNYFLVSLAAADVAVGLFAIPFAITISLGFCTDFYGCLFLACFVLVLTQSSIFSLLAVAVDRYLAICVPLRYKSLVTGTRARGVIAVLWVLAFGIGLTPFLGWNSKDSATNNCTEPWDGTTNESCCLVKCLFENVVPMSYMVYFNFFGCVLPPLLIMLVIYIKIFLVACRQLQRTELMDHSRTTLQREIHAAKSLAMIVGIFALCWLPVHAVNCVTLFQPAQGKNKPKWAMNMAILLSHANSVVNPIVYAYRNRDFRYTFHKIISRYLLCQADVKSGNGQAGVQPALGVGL

As to `N#Cc1cccc(-c2nc(N)c3nc(Cn4cc5ccccc5n4)nn3c2-c2ccncn2)c1` [Example 47, 3-(2-((2H-Indazol-2-yl)methyl)-8-amino-5-(pyrimidin-4-yl)-[1,2,4]triazolo[1,5-a]pyrazin-6-yl)benzonitrile], the EC50 (usually the concentration at which the effect is half-maximal) in assay [1] lay within 10 to 100 nM. Also, the Ki in assay [2] is less than 10 nM.
Regarding `N#Cc1cccc(-c2nc(N)c3nc(Cn4ncc5ccccc54)nn3c2-c2ccncn2)c1` [Example 48, 3-(2-((1H-Indazol-1-yl)methyl)-8-amino-5-(pyrimidin-4-yl)-[1,2,4]triazolo[1,5-a]pyrazin-6-yl)benzonitrile], in assay [1], the EC50 fell in the range of 10 to 100 nM. In addition, in assay [2], the Ki was less than 10 nM.
The compound `N#Cc1cccc(-c2nc(N)c3nc(C(O)c4ccccc4)nn3c2-c2ccncn2)c1` (centres unmarked) [Example 59, 3-(8-Amino-2-(hydroxy(phenyl)methyl)-5-(pyrimidin-4-yl)-[1,2,4]triazolo[1,5-a]pyrazin-6-yl)benzonitrile] gave an EC50 in assay [1] of 10 to 100 nM. Also, in assay [2], the Ki was less than 10 nM.
Consider `N#Cc1cccc(-c2nc(N)c3nc(S(=O)(=O)c4ccccc4)nn3c2-c2ccncn2)c1` [Example 60, 3-(8-Amino-2-(phenylsulfonyl)-5-(pyrimidin-4-yl)-[1,2,4]triazolo[1,5-a]pyrazin-6-yl)benzonitrile], for which the EC50 in assay [1] was 10 to 100 nM. In assay [2], the Ki was less than 10 nM.
`Cc1ncoc1-c1c(-c2cccc(C#N)c2)nc(N)c2nc(C(=O)N3CCC3)nn12` [Example 61, 3-(8-Amino-2-(azetidine-1-carbonyl)-5-(4-methyloxazol-5-yl)-[1,2,4]triazolo[1,5-a]pyrazin-6-yl)benzonitrile] yielded a half-maximal effective concentration (EC50) in assay [1] of less than 10 nM. The Ki in assay [2] was less than 10 nM.
`N#Cc1cccc(-c2nc(N)c3nc(Cc4ccccn4)nn3c2-c2ccc(O)nc2)c1` [Example 62, 3-(8-amino-5-(6-hydroxypyridin-3-yl)-2-(pyridin-2-ylmethyl)-[1,2,4]triazolo[1,5-a]pyrazin-6-yl)benzonitrile]: in assay [1], the half-maximal effective concentration (EC50) is less than 10 nM. Further, the Ki in assay [2] is less than 10 nM.
In assay [1], `N#Cc1cccc(-c2nc(N)c3nc(Cc4cccc5ocnc45)nn3c2-c2ccncn2)c1` [Example 63, 3-(8-amino-2-(benzo[d]oxazol-4-ylmethyl)-5-(pyrimidin-4-yl)-[1,2,4]triazolo[1,5-a]pyrazin-6-yl)benzonitrile] gave a half-maximal effective concentration (EC50) of less than 10 nM. Besides, in assay [2], the Ki is less than 10 nM.
For the compound `Cn1nccc1-c1cccc(F)c1Cc1nc2c(N)nc(-c3cccc(C#N)c3)c(-c3ccncn3)n2n1` [Example 64, 3-(8-amino-2-(2-fluoro-6-(1-methyl-1H-pyrazol-5-yl)benzyl)-5-(pyrimidin-4-yl)-[1,2,4]triazolo[1,5-a]pyrazin-6-yl)benzonitrile], in assay [1], the EC50 is less than 10 nM. Further, the Ki in assay [2] was less than 10 nM.
Consider `C[C@@]1(C(=O)O)CCN(Cc2cccc(F)c2Cc2nc3c(N)nc(-c4cccc(C#N)c4)c(-c4ccncn4)n3n2)C1` [Example 65, (R)-1-(2-((8-amino-6-(3-cyanophenyl)-5-(pyrimidin-4-yl)-[1,2,4]triazolo[1,5-a]pyrazin-2-yl)methyl)-3-fluorobenzyl)-3-methylpyrrolidine-3-carboxylic Acid], for which the concentration for a half-maximal effect (EC50) in assay [1] was 10 to 100 nM. In assay [2], the Ki was less than 10 nM.
For `CN1CCC2(CN(Cc3cccc(F)c3Cc3nc4c(N)nc(-c5cccc(C#N)c5)c(-c5ccncn5)n4n3)C2)C1=O` [Example 66, 3-(8-amino-2-(2-fluoro-6-((6-methyl-5-oxo-2,6-diazaspiro[3.4]octan-2-yl)methyl)benzyl)-5-(pyrimidin-4-yl)-[1,2,4]triazolo[1,5-a]pyrazin-6-yl)benzonitrile], the 50% effective concentration (EC50) in assay [1] was less than 10 nM. Moreover, the Ki in assay [2] is less than 10 nM.
`N#Cc1cccc(-c2nc(N)c3nc(Cc4c(F)cccc4CN4CCN5C(=O)CCC5C4)nn3c2-c2ccncn2)c1` (centres unmarked) [Example 67, 3-(8-amino-2-(2-fluoro-6-((6-oxohexahydropyrrolo[1,2-a]pyrazin-2(1H)-yl)methyl)benzyl)-5-(pyrimidin-4-yl)-[1,2,4]triazolo[1,5-a]pyrazin-6-yl)benzonitrile] came in with an EC50 in assay [1] of less than 10 nM. Also, the Ki in assay [2] was less than 10 nM.
In assay [1], `N#Cc1cccc(-c2nc(N)c3nc(Cc4c(F)cccc4CN[C@H]4CCNC4=O)nn3c2-c2ccncn2)c1` [Example 68, (S)-3-(8-amino-2-(2-fluoro-6-(((2-oxopyrrolidin-3-yl)amino)methyl)benzyl)-5-(pyrimidin-4-yl)-[1,2,4]triazolo[1,5-a]pyrazin-6-yl)benzonitrile] registered a concentration giving a half-maximal response (EC50) of 10 to 100 nM. In assay [2], the Ki is less than 10 nM.
On the same counts, the results for `N#Cc1cccc(-c2nc(N)c3nc(Cc4c(F)cccc4CNCC(N)=O)nn3c2-c2ccncn2)c1` [Example 69, 2-((2-((8-amino-6-(3-cyanophenyl)-5-(pyrimidin-4-yl)-[1,2,4]triazolo[1,5-a]pyrazin-2-yl)methyl)-3-fluorobenzyl)amino)acetamide] are less than 10 nM and less than 10 nM.
On the same counts, the results for `N#Cc1cccc(-c2nc(N)c3nc(Cc4c(F)cccc4CN4CCNC(=O)C4)nn3c2-c2ccncn2)c1` [Example 70, 3-(8-amino-2-(2-fluoro-6-((3-oxopiperazin-1-yl)methyl)benzyl)-5-(pyrimidin-4-yl)-[1,2,4]triazolo[1,5-a]pyrazin-6-yl)benzonitrile] are 10 to 100 nM and less than 10 nM.
`N#Cc1cccc(-c2nc(N)c3nc(Cc4c(F)cccc4CN[C@H]4C[C@@H](C(=O)O)C4)nn3c2-c2ccncn2)c1` [Example 71, (1S,3S)-3-((2-((8-amino-6-(3-cyanophenyl)-5-(pyrimidin-4-yl)-[1,2,4]triazolo[1,5-a]pyrazin-2-yl)methyl)-3-fluorobenzyl)amino)cyclobutane-1-carboxylic Acid] showed an EC50 in assay [1] of less than 10 nM. The Ki in assay [2] was less than 10 nM.
In turn, `CN1CCC(NCc2cccc(F)c2Cc2nc3c(N)nc(-c4cccc(C#N)c4)c(-c4ccncn4)n3n2)C1=O` (centres unmarked) [Example 72, 3-(8-amino-2-(2-fluoro-6-(((1-methyl-2-oxopyrrolidin-3-yl)amino)methyl)benzyl)-5-(pyrimidin-4-yl)-[1,2,4]triazolo[1,5-a]pyrazin-6-yl)benzonitrile] came in with an EC50 in assay [1] of less than 10 nM. The Ki in assay [2] is less than 10 nM.
Turning to `N#Cc1cccc(-c2nc(N)c3nc(Cc4c(F)cccc4CN4CC(C#N)C4)nn3c2-c2ccncn2)c1` [Example 73, 1-(2-((8-amino-6-(3-cyanophenyl)-5-(pyrimidin-4-yl)-[1,2,4]triazolo[1,5-a]pyrazin-2-yl)methyl)-3-fluorobenzyl)azetidine-3-carbonitrile], in assay [1], the EC50 is less than 10 nM. Moreover, the Ki in assay [2] was less than 10 nM.
Compound `Cn1ncc(NCc2cccc(F)c2Cc2nc3c(N)nc(-c4cccc(C#N)c4)c(-c4ccncn4)n3n2)n1` [Example 74, 3-(8-amino-2-(2-fluoro-6-(((2-methyl-2H-1,2,3-triazol-4-yl)amino)methyl)benzyl)-5-(pyrimidin-4-yl)-[1,2,4]triazolo[1,5-a]pyrazin-6-yl)benzonitrile] gave a half-maximal effective concentration (EC50) in assay [1] of less than 10 nM. Further, in assay [2], the Ki is less than 10 nM.
`N#Cc1cccc(-c2nc(N)c3nc(Cc4ccccc4CN[C@H]4CCNC4=O)nn3c2-c2ccncn2)c1` [Example 75, (S)-3-(8-amino-2-(2-(((2-oxopyrrolidin-3-yl)amino)methyl)benzyl)-5-(pyrimidin-4-yl)-[1,2,4]triazolo[1,5-a]pyrazin-6-yl)benzonitrile]: the EC50 in assay [1] was less than 10 nM. Besides, in assay [2], the Ki is less than 10 nM.
